This is an account of results in patent US9458110B2, “Phenylpyrazole derivatives as potent ROCK1 and ROCK2 inhibitors” (BRISTOL-MYERS SQUIBB COMPANY, priority 2013, dated 2016).

One experiment deals with ROCK1 (Homo sapiens (Human), UniProt Q13464). Nature of the experiment: ROCK assay (Caliper LABCHIP peptide phosphorylation), ROCK1.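 Further: Read-out is separation of phosphorylated from unphosphorylated peptide, with kinase activity inhibition computed at every concentration of a dose-response series.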 Format: biochemical. Conditions: 5 μM ATP, 1.5 μM peptide substrate.
Chain of ROCK1 (Q13464 whole entry, species assumed): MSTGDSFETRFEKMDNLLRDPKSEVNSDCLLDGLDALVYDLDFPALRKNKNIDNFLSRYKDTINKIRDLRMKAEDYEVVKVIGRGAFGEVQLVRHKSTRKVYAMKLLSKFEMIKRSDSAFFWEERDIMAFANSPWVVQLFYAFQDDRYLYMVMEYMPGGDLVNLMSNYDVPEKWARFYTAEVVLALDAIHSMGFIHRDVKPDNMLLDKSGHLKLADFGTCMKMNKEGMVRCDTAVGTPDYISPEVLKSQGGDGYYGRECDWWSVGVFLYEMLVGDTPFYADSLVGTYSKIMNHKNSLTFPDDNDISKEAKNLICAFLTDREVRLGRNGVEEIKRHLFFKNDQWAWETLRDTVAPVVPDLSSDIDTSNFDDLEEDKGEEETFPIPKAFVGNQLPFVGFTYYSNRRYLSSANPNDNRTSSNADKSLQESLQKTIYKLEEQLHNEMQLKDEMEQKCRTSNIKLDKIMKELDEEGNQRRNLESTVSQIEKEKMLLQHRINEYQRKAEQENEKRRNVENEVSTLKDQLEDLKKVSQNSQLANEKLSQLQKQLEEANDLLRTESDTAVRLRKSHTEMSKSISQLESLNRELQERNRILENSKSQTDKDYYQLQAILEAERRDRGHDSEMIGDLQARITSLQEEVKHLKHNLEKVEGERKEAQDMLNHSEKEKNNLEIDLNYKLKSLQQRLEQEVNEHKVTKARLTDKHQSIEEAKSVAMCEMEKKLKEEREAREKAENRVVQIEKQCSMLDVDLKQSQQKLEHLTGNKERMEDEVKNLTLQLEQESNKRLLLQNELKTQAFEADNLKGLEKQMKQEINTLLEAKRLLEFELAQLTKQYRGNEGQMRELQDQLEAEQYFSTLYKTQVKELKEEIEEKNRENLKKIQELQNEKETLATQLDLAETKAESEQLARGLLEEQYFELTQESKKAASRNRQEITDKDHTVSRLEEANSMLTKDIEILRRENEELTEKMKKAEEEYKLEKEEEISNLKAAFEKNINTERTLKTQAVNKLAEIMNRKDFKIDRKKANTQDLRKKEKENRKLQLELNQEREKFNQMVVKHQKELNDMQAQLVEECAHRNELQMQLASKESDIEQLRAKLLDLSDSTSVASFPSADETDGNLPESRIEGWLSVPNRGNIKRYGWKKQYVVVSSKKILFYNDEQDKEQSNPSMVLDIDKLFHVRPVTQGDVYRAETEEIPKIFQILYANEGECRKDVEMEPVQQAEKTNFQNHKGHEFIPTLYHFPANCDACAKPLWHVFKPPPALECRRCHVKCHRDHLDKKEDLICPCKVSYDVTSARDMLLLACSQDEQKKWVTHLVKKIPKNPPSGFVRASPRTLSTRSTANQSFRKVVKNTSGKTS
A further experiment deals with ROCK2 (Homo sapiens (Human), UniProt O75116). The experiment is described as follows: ROCK assay (Caliper LABCHIP peptide phosphorylation), ROCK2.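 Further: reaction stopped with EDTA, then phosphorylated and unphosphorylated peptide resolved by microfluidic electrophoresis, kinase inhibition computed at each compound concentration in dose-response series, DMSO under 2%.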 The class given is biochemical. Conditions: 5 μM ATP, 1.5 μM peptide substrate.
Chain of ROCK2 (O75116 whole entry, species assumed): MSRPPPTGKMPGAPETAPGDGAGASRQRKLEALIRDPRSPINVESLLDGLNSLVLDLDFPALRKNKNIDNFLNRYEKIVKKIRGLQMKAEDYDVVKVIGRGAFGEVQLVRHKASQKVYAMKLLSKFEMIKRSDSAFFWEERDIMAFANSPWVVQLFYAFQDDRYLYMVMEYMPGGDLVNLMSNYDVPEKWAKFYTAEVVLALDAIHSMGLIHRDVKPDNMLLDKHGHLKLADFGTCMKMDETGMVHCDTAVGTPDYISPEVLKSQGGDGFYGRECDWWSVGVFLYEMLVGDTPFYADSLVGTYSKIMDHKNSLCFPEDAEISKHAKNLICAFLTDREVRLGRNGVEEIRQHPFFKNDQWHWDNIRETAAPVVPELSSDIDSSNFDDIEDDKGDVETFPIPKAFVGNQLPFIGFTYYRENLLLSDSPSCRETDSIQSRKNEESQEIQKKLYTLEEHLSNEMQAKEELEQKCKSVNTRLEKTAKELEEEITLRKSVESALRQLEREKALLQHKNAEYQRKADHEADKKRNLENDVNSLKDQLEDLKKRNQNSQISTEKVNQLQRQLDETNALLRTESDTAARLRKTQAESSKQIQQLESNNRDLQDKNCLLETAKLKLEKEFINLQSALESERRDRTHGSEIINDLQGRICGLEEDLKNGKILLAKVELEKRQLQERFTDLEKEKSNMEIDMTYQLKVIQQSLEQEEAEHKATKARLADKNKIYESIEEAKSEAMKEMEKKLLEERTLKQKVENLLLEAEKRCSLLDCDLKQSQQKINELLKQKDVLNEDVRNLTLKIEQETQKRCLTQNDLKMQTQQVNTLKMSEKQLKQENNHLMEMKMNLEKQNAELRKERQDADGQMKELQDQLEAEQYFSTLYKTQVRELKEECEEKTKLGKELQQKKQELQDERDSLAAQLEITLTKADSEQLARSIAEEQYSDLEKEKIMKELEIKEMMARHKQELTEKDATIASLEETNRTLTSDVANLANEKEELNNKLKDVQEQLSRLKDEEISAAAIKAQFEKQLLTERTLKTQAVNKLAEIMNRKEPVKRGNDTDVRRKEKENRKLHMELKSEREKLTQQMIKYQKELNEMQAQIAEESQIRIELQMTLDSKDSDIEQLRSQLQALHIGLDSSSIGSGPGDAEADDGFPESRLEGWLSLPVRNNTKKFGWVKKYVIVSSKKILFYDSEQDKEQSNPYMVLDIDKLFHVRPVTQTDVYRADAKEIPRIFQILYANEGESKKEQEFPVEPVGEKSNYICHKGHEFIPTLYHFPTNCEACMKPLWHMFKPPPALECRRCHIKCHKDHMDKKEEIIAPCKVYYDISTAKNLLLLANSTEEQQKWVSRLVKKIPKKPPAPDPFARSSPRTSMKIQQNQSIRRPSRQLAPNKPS

What is called IC50 is the concentration that inhibits the measured activity by half.

Molecules are shown by their SMILES. Bounds are passed on as bounds.

For the compound `CC(NC(=O)c1ccc(-c2cn[nH]c2)c(C=O)c1)c1ccccc1F` (centres unmarked) [Example 275, N-[1-(2-fluorophenyl)ethyl]-3-formyl-4-(1H-pyrazol-4-yl)benzamide], the half-inhibitory concentration (IC50) against ROCK1 came to 983 nM; at ROCK2, 1420 nM.
For the compound `CC(NC(=O)c1ccc(-c2cn[nH]c2)c(C=O)c1)c1ccccc1F` (centres unmarked) [Example 276, N-[1-(2-fluorophenyl)ethyl]-3-formyl-4-(1H-pyrazol-4-yl)benzamide], the IC50 against ROCK1 was 509 nM; on ROCK2, 409 nM.
For the compound `COC[C@@H](NC(=O)c1ccc(-c2cn[nH]c2)c(C(C)O)c1)c1ccccc1` (stereo partly drawn) [Example 277, 3-(1-hydroxyethyl)-N-[(1S)-2-methoxy-1-phenylethyl]-4-(1H-pyrazol-4-yl)benzamide], the half-maximal inhibitory concentration (IC50) against ROCK1 turned out to be 156 nM; against ROCK2 it was 44.2 nM.
`CC(O)c1cc(C(=O)NC(C)c2ccccc2F)ccc1-c1cn[nH]c1` (centres unmarked) [Example 278, N-[1-(2-fluorophenyl)ethyl]-3-(1-hydroxyethyl)-4-(1H-pyrazol-4-yl)benzamide]: the IC50 against ROCK1 is 1780 nM; against ROCK2, 1320 nM.
With `CC(O)c1cc(C(=O)NC(C)c2ccccc2F)ccc1-c1cn[nH]c1` (centres unmarked) [Example 279, N-[1-(2-fluorophenyl)ethyl]-3-(1-hydroxyethyl)-4-(1H-pyrazol-4-yl)benzamide], the IC50 against ROCK1 turned out to be 52.9 nM; on ROCK2 it was 15.7 nM.
Consider `CC(O)c1cc(C(=O)N[C@H](C)c2ccccc2)ccc1-c1cn[nH]c1` (stereo partly drawn) [Example 280, 3-(1-hydroxyethyl)-N-[(1R)-1-phenylethyl]-4-(1H-pyrazol-4-yl)benzamide], for which the half-maximal inhibitory concentration (IC50) on ROCK1 is above 2000 nM; against ROCK2, 443 nM.
On to `CC(O)c1cc(C(=O)N[C@H](C)c2ccccc2)ccc1-c1cn[nH]c1` (stereo partly drawn) [Example 281, 3-(1-hydroxyethyl)-N-[(1R)-1-phenylethyl]-4-(1H-pyrazol-4-yl)benzamide], for which the IC50 was found to be 26.8 nM against ROCK1 and 9.73 nM against ROCK2.
In the case of `CC(O)c1cc(C(=O)N[C@H](C)c2ccccc2F)ccc1-c1cn[nH]c1` (stereo partly drawn) [Example 282, N-[(1R)-1-(2-fluorophenyl)ethyl]-3-(1-hydroxyethyl)-4-(1H-pyrazol-4-yl)benzamide], the half-maximal inhibitory concentration (IC50) at ROCK1 came out at 242 nM; on ROCK2, 336 nM.
Taken in the same sequence, the figures for `CC(O)c1cc(C(=O)N[C@H](C)c2ccccc2F)ccc1-c1cn[nH]c1` (stereo partly drawn) [Example 283, N-[(1R)-1-(2-fluorophenyl)ethyl]-3-(1-hydroxyethyl)-4-(1H-pyrazol-4-yl)benzamide] were 50.6 nM and 5.43 nM.
Turning to `CCC(O)c1cc(C(=O)N[C@H](C)c2ccccc2)ccc1-c1cn[nH]c1` (stereo partly drawn) [Example 284, 3-(1-hydroxypropyl)-N-[(1R)-1-phenylethyl]-4-(1H-pyrazol-4-yl)benzamide], the results for the IC50 against ROCK1 and on ROCK2 were 842 nM and 183 nM, respectively.
As for `CCC(O)c1cc(C(=O)N[C@H](C)c2ccccc2)ccc1-c1cn[nH]c1` (stereo partly drawn) [Example 285, 3-(1-hydroxypropyl)-N-[(1R)-1-phenylethyl]-4-(1H-pyrazol-4-yl)benzamide], the values for the 50% inhibitory concentration (IC50) on ROCK1 and against ROCK2 were above 2000 nM and 1480 nM, respectively.
Turning to `CCC(O)c1cc(C(=O)N[C@H](C)c2ccccc2)ccc1-c1cn[nH]c1` (stereo partly drawn) [Example 286, 3-(1-hydroxypropyl)-N-[(1R)-1-phenylethyl]-4-(1H-pyrazol-4-yl)benzamide], the concentration for half-maximal inhibition (IC50) against ROCK1 amounted to 97.6 nM; against ROCK2, 190 nM.
On the same counts, the results for `CC(O)c1cc(C(=O)NC(C)c2c(F)cccc2F)ccc1-c1cn[nH]c1` (centres unmarked) [Example 287, N-[1-(2,6-difluorophenyl)ethyl]-3-(1-hydroxyethyl)-4-(1H-pyrazol-4-yl)benzamide] are 111 nM and 27.8 nM.
`CC(O)c1cc(C(=O)NC(C)c2c(F)cccc2F)ccc1-c1cn[nH]c1` (centres unmarked) [Example 288, N-[1-(2,6-difluorophenyl)ethyl]-3-(1-hydroxyethyl)-4-(1H-pyrazol-4-yl)benzamide]: the figures for the IC50 on ROCK1 and against ROCK2 were 150 nM and 446 nM, respectively.
With `CC(O)c1cc(C(=O)NCc2c(F)cccc2Cl)ccc1-c1cn[nH]c1` (centres unmarked) [Example 289, N-[(2-chloro-6-fluorophenyl)methyl]-3-(1-hydroxyethyl)-4-(1H-pyrazol-4-yl)benzamide], the IC50 came to 275 nM against ROCK1 and 74.3 nM against ROCK2.
With `CC(O)c1cc(C(=O)NCc2c(F)cccc2Cl)ccc1-c1cn[nH]c1` (centres unmarked) [Example 290, N-[(2-chloro-6-fluorophenyl)methyl]-3-(1-hydroxyethyl)-4-(1H-pyrazol-4-yl)benzamide], the IC50 against ROCK1 is 1950 nM; against ROCK2, 1760 nM.
`CC(O)c1cc(C(=O)NCc2c(F)cccc2Cl)ccc1-c1cn[nH]c1` (centres unmarked) [Example 291, N-[(2-chloro-6-fluorophenyl)methyl]-3-(1-hydroxyethyl)-4-(1H-pyrazol-4-yl)benzamide]: the results for the IC50 on ROCK1 and at ROCK2 were 138 nM and 104 nM, respectively.
Taken in the same sequence, the figures for `CC(O)c1cc(C(=O)N[C@H](C)c2c(F)cccc2F)ccc1-c1cn[nH]c1` (stereo partly drawn) [Example 292, N-[(1R)-1-(2,6-difluorophenyl)ethyl]-3-(1-hydroxyethyl)-4-(1H-pyrazol-4-yl)benzamide] were 1140 nM and 1510 nM.
Take `CC(O)c1cc(C(=O)N[C@H](C)c2c(F)cccc2F)ccc1-c1cn[nH]c1` (stereo partly drawn) [Example 293, N-[(1R)-1-(2,6-difluorophenyl)ethyl]-3-(1-hydroxyethyl)-4-(1H-pyrazol-4-yl)benzamide]: the concentration for half-maximal inhibition (IC50) is 98.2 nM at ROCK1 and 16.2 nM at ROCK2.
With `CC(=O)c1cc(C(=O)N[C@H](C)c2ccccc2)ccc1-c1cn[nH]c1` [Example 294, (R)-3-Acetyl-N-(1-phenylethyl)-4-(1H-pyrazol-4-yl)benzamide], the half-maximal inhibitory concentration (IC50) against ROCK1 was above 2000 nM; against ROCK2, 613 nM.
For `COC(=O)c1cc(C(=O)N[C@H](C)c2ccc(F)cc2)ccc1-c1cn[nH]c1` [Example 295, (R)-Methyl 5-((1-(4-fluorophenyl)ethyl)carbamoyl)-2-(1H-pyrazol-4-yl)benzoate], the 50% inhibitory concentration (IC50) at ROCK1 amounted to 1700 nM; on ROCK2, 563 nM.
Consider `C[C@@H](NC(=O)c1ccc(-c2cn[nH]c2)c(N(C)C)c1)c1ccc(F)cc1` [Example 296, (R)-3-(Dimethylamino)-N-(1-(4-fluorophenyl)ethyl)-4-(1H-pyrazol-4-yl)benzamide], for which the values for the IC50 on ROCK1 and on ROCK2 were 145 nM and 54.6 nM, respectively.
Consider `CNc1cc(C(=O)N[C@H](C)c2ccc(F)cc2)ccc1-c1cn[nH]c1` [Example 297, (R)-N-(1-(4-Fluorophenyl)ethyl)-3-(methylamino)-4-(1H-pyrazol-4-yl)benzamide], for which the half-maximal inhibitory concentration (IC50) against ROCK1 came out at 1760 nM; on ROCK2, 518 nM.
On to `COc1cc(C(=O)N(Cc2ccccc2F)CC(C)(C)O)ccc1-c1cn[nH]c1` [Example 298, N-(2-Fluorobenzyl)-N-(2-hydroxy-2-methylpropyl)-3-methoxy-4-(1H-pyrazol-4-yl)benzamide], for which the results for the IC50 on ROCK1 and at ROCK2 were 839 nM and 667 nM, respectively.
In the case of `COC(=O)c1n[nH]cc1-c1ccc(C(=O)N[C@H](C)c2cccc(OC)c2)c(OC)c1` [Example 302, (R)-Methyl 4-(3-methoxy-4-((1-(3-methoxyphenyl)ethyl)carbamoyl)phenyl)-1H-pyrazole-3-carboxylate], the IC50 at ROCK1 is 70.9 nM; on ROCK2, 69.6 nM.
For `COc1cccc([C@@H](C)NC(=O)c2ccc(-c3c[nH]nc3C#N)cc2OC)c1` [Example 303, 4-(3-Cyano-1H-pyrazol-4-yl)-2-methoxy-N-[(1R)-1-(3-methoxyphenyl)ethyl]benzamide], the IC50 worked out at 30.6 nM against ROCK1 and 21 nM on ROCK2.
Turning to `COc1cccc([C@@H](C)NC(=O)c2ccc(-c3c(C)n[nH]c3C)cc2OC)c1` [Example 304, 4-(3,5-Dimethyl-1H-pyrazol-4-yl)-2-methoxy-N-[(1R)-1-(3-methoxyphenyl)ethyl]benzamide], the concentration for half-maximal inhibition (IC50) on ROCK1 was 133 nM; at ROCK2, 24.5 nM.
As for `COc1cccc([C@@H](C)NC(=O)c2ccc(-c3c[nH]nc3C)cc2OC)c1` [Example 305, 4-(3-Methyl-1H-pyrazol-4-yl)-2-methoxy-N-[(1R)-1-(3-methoxyphenyl)ethyl]benzamide], the results for the 50% inhibitory concentration (IC50) against ROCK1 and against ROCK2 were 2.15 nM and 0.65 nM, respectively.
In the case of `COc1cccc([C@@H](C)NC(=O)c2ccc(-c3c[nH]nc3CO)cc2OC)c1` [Example 306, (R)-4-(3-(Hydroxymethyl)-1H-pyrazol-4-yl)-2-methoxy-N-(1-(3-methoxyphenyl)ethyl)benzamide], the IC50 against ROCK1 was found to be 63.8 nM; against ROCK2 it was 43.5 nM.
Regarding `COc1cccc([C@@H](C)NC(=O)c2ccc(-c3c[nH]nc3C(C)O)cc2OC)c1` (stereo partly drawn) [Example 307, 4-(3-(1-Hydroxyethyl)-1H-pyrazol-4-yl)-2-methoxy-N-((R)-1-(3-methoxyphenyl)ethyl)benzamide], the half-inhibitory concentration (IC50) came to 544 nM on ROCK1 and 205 nM on ROCK2.
On to `COc1cccc([C@@H](C)NC(=O)c2ccc(-c3cn[nH]c3)cc2OCCN(C)C)c1` [Example 308, 2-[2-(Dimethylamino)ethoxy]-N-[(1R)-1-(3-methoxyphenyl)ethyl]-4-(1H-pyrazol-4-yl)benzamide], for which the IC50 against ROCK1 is 284 nM; on ROCK2, 37.5 nM.
Take `Cc1n[nH]cc1-c1cc(OCCN(C)C)c(C(=O)N[C@H](C)c2ccccc2)cc1F` [Example 309, 2-[2-(dimethylamino)ethoxy]-5-fluoro-4-(3-methyl-1H-pyrazol-4-yl)-N-[(1R)-1-phenylethyl]benzamide]: the figures for the half-inhibitory concentration (IC50) against ROCK1 and on ROCK2 were above 2000 nM and 771 nM, respectively.
For the compound `COc1cccc([C@@H](C)NC(=O)c2ccc(-c3c[nH]nc3C)cc2OCCN(C)C)c1` [Example 311, 2-[2-(dimethylamino)ethoxy]-N-[(1R)-1-(3-methoxyphenyl)ethyl]-4-(3-methyl-1H-pyrazol-4-yl)benzamide], the IC50 at ROCK1 was 22.3 nM; on ROCK2, 34.8 nM.
Take `COc1cc(-c2cn[nH]c2)cc(F)c1C(=O)N[C@H](C)c1ccccc1` [Example 312, 2-fluoro-6-methoxy-N-[(1R)-1-phenylethyl]-4-(1H-pyrazol-4-yl)benzamide]: the figures for the IC50 at ROCK1 and against ROCK2 were above 2000 nM and 1490 nM, respectively.
